Experimental data reported in PubChem BioAssay AID2060619 (Molecular Pharmacology Branch, DTP, NCI, 2025).

Test system: 323965-272-R-J2-PDC complex spheroid viability
Assay: Anticancer human tumor 323965-272-R-J2-PDC patient-derived pancreatic carcinoma cell line growth inhibition [CLK]
Conditions: for IC50: curve of first compound; for viability, T/C: stronger effect = lower value; active = viability on the fitted dose curve at most 10% of control; inactive = the rest
In short: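 Patient-derived tumor cells grown as complex spheroids with HUVEC endothelial cells and mesenchymal stem cells, treated with drug combinations. Concentrations descend in half-log steps from near clinical Cmax, or from 10 microM if Cmax unknown.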

[1] = second compound 0.0316 µM, first compound 0.0316 µM
[2] = second compound 0.0316 µM, first compound 0.1 µM
[3] = second compound 0.0316 µM, first compound 0.316 µM
[4] = second compound 0.0316 µM, first compound 1 µM
[5] = second compound 0.0316 µM, first compound 3.16 µM
[6] = second compound 0.0316 µM, first compound 10 µM
[7] = second compound 0.1 µM, first compound 0.0316 µM
[8] = second compound 0.1 µM, first compound 0.1 µM
[9] = second compound 0.1 µM, first compound 0.316 µM
[10] = second compound 0.1 µM, first compound 1 µM
[11] = second compound 0.1 µM, first compound 3.16 µM
[12] = second compound 0.1 µM, first compound 10 µM
[13] = second compound 0.316 µM, first compound 0.0316 µM
[14] = second compound 0.316 µM, first compound 0.1 µM
[15] = second compound 0.316 µM, first compound 0.316 µM
[16] = second compound 0.316 µM, first compound 1 µM
[17] = second compound 0.316 µM, first compound 3.16 µM
[18] = second compound 0.316 µM, first compound 10 µM
[19] = second compound 1 µM, first compound 0.0316 µM
[20] = second compound 1 µM, first compound 0.1 µM
[21] = second compound 1 µM, first compound 0.316 µM
[22] = second compound 1 µM, first compound 1 µM
[23] = second compound 1 µM, first compound 3.16 µM
[24] = second compound 1 µM, first compound 10 µM
[25] = second compound 3.16 µM, first compound 0.0316 µM
[26] = second compound 3.16 µM, first compound 0.1 µM
[27] = second compound 3.16 µM, first compound 0.316 µM
[28] = second compound 3.16 µM, first compound 1 µM
[29] = second compound 3.16 µM, first compound 3.16 µM
[30] = second compound 3.16 µM, first compound 10 µM
[31] = second compound 10 µM, first compound 0.0316 µM
[32] = second compound 10 µM, first compound 0.1 µM
[33] = second compound 10 µM, first compound 0.316 µM
[34] = second compound 10 µM, first compound 1 µM
[35] = second compound 10 µM, first compound 3.16 µM
[36] = second compound 10 µM, first compound 10 µM
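Note: spheroids exposed to agents for seven days before readout.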
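Throughout, for viability, T/C: percent of DMSO vehicle control wells so 100% = untreated growth.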

CCCS(=O)(=O)Nc1ccc(F)c(C(=O)c2c[nH]c3ncc(-c4ccc(Cl)cc4)cc23)c1F + CNC(=O)c1ccc(Nc2nc(OC3CCCC3)c3c(-c4ccc5nc(C)oc5c4)c[nH]c3n2)c(OC)c1
> 10000 nM: IC50 (second compound 0.0316 µM) | IC50 (second compound 0.1 µM) | IC50 (second compound 0.316 µM) | IC50 (second compound 1 µM)
< 31.6 nM: IC50 (second compound 3.16 µM) | IC50 (second compound 10 µM)
inactive: viability, T/C [1] 106% | viability, T/C [2] 113% | viability, T/C [3] 116% | viability, T/C [4] 127% | viability, T/C [5] 127% | viability, T/C [6] 106% | viability, T/C [7] 94.3% | viability, T/C [8] 88.2% | viability, T/C [9] 97.5% | viability, T/C [10] 98.3% | viability, T/C [11] 90% | viability, T/C [12] 79.9% | viability, T/C [13] 72.5% | viability, T/C [14] 74.8% | viability, T/C [15] 78% | viability, T/C [16] 78.8% | viability, T/C [17] 88.8% | viability, T/C [18] 72% | viability, T/C [19] 47.8% | viability, T/C [20] 59.6% | viability, T/C [21] 64.8% | viability, T/C [22] 71% | viability, T/C [23] 60.9% | viability, T/C [24] 60.2% | viability, T/C [25] 47.6% | viability, T/C [26] 54.7% | viability, T/C [27] 53.6% | viability, T/C [28] 49.2% | viability, T/C [29] 61.5% | viability, T/C [30] 59.2% | viability, T/C [31] 42.5% | viability, T/C [32] 50.6% | viability, T/C [33] 47.8% | viability, T/C [34] 58.8% | viability, T/C [35] 67.2% | viability, T/C [36] 61.4%

COC1C=CCC(C)C(C)S(=O)(=O)NC(=O)c2ccc3c(c2)N(CC2CCC21)CC1(CCCc2cc(Cl)ccc21)CO3 (centres undefined) + CNC(=O)c1ccc(Nc2nc(OC3CCCC3)c3c(-c4ccc5nc(C)oc5c4)c[nH]c3n2)c(OC)c1
580 nM: IC50 (second compound 0.316 µM)
< 31.6 nM: IC50 (second compound 1 µM) | IC50 (second compound 3.16 µM)
1370 nM: IC50 (second compound 0.1 µM)
53.1 nM: IC50 (second compound 10 µM)
2200 nM: IC50 (second compound 0.0316 µM)
inactive: viability, T/C [1] 106% | viability, T/C [2] 119% | viability, T/C [3] 85.4% | viability, T/C [4] 68.3% | viability, T/C [5] 43.9% | viability, T/C [6] 23.2% | viability, T/C [7] 105% | viability, T/C [8] 86.5% | viability, T/C [9] 68.8% | viability, T/C [10] 57.4% | viability, T/C [11] 36.8% | viability, T/C [12] 25.1% | viability, T/C [13] 74.1% | viability, T/C [14] 62% | viability, T/C [15] 56.9% | viability, T/C [16] 42.3% | viability, T/C [17] 39.1% | viability, T/C [18] 21.4% | viability, T/C [19] 47.6% | viability, T/C [20] 47.8% | viability, T/C [21] 39.1% | viability, T/C [22] 37.4% | viability, T/C [23] 30.7% | viability, T/C [24] 21.5% | viability, T/C [25] 46.1% | viability, T/C [26] 43.5% | viability, T/C [27] 36.7% | viability, T/C [28] 29.7% | viability, T/C [29] 28.4% | viability, T/C [30] 20.7% | viability, T/C [31] 54.7% | viability, T/C [32] 45.3% | viability, T/C [33] 32.8% | viability, T/C [34] 29.2% | viability, T/C [35] 24.8% | viability, T/C [36] 18.1%
